Measured values reported in paper PMC5982112 (Peptides, 2018).
Ends that are not written are not given here.

Columns and labels:
[1] = tested on: Escherichia coli (ATCC 25922); test: Broth dilution sterilization assay, E. coli; assay type: cell-based; settings: lowest concentration that completely sterilizes bacteria in media, mean of at least three independent measurements
[2] = tested on: Pseudomonas aeruginosa (PA01, ATTC 47085); test: Broth dilution sterilization assay, P. aeruginosa; assay type: cell-based; settings: lowest concentration that completely sterilizes bacteria in media, mean of at least three independent measurements
Bacillus cereus = test: Broth dilution sterilization assay, B. cereus; assay type: cell-based; settings: lowest concentration that completely sterilizes bacteria in media, mean of at least three independent measurements
[3] = tested on: bloodstream (infective) form of Trypanosoma brucei; settings: cited from earlier work
[4] = tested on: Staphylococcus aureus (ATCC 25923); test: Broth dilution sterilization assay, S. aureus; assay type: cell-based; settings: lowest concentration that completely sterilizes bacteria in media, mean of at least three independent measurements
[5] = tested on: Staphylococcus aureus (ATCC 25923); assay type: cell-based
[6] = tested on: Escherichia coli (ATCC 25922); assay type: cell-based
E. coli = settings: ref 17 (El Karim et al.); cited from earlier work
S. aureus = settings: ref 17 (El Karim et al.); cited from earlier work
[7] = tested on: procyclic (noninfective) form of T. brucei; settings: cited from earlier work

Row | Substance | EC Broth, minimum inhibitory concentration (MIC) [1] [µM] | PA Broth, minimum inhibitory concentration (MIC) [2] [µM] | BC Broth, minimum inhibitory concentration (MIC) (Bacillus cereus) [µM] | Killing of bloodstream (infective) form of Trypanosoma brucei [3] | SA Broth, minimum inhibitory concentration (MIC) [4] [µM] | SA Radial Diffusion, minimum inhibitory concentration (MIC) [5] [µM] | EC Radial Diffusion, minimum inhibitory concentration (MIC) [6] [µM] | Activity against E. coli (E. coli) | Activity against S. aureus (S. aureus) | Effect on procyclic (noninfective) form of T. brucei [7]
1 | PACAP(6–38) | >30 | 30.0 | >30 | effective | >30 |  |  |  |  | 
2 | [Pip^3,Aib^16,28,Ala^17,21,Lys^34,D-Lys^38]PACAP38 | 1.43 | 0.64 | 7.26 |  | >30 |  |  |  |  | 
3 | [D-Ser^2]PACAP38 | >30 | 6.1 | 13.6 |  | >30 |  |  |  |  | 
4 | [Pip^3]PACAP38 | >30 | 8.9 | 8.9 |  | >30 |  |  |  |  | 
5 | [Pip^3,Aib^16,28,Ala^17,Lys^34,D-Lys^38]PACAP38 | 2.15 | 0.52 | 3.95 |  | >30 |  |  |  |  | 
6 | RRGWALRLVLAY-NH2 [ARVA] | 2.3 | 4.3 | 6.4 |  | 5.1 | 3.46 | 1.57 |  |  | 
7 | vasoactive intestinal peptide [VIP] | >30 | 30.0 | >30 |  | >30 |  |  | had activity against E. coli | not against S. aureus | 
8 | [Ala^22]PACAP38 | 2.15 | 0.52 | 4.84 |  | >30 |  |  |  |  | 
9 | PACAP27 | >30 | 23.6 | >30 |  | >30 |  |  |  |  | 
10 | indolicidin | 6.24 | >50 | 10.7 |  | 7.9 |  |  |  |  | 
11 | Pituitary adenylate cyclase-activating polypeptide [PACAP38] | 28.3 | 1.2 | 23.3 | killed | >30 |  |  |  |  | resistant
